Columns and labels:
[1] = tested on: 293T cells; assay: Test Example 12: cytotoxicity, LDH activity in culture supernatant; type: cell-based; conditions: concentration of at least about 0.3 μM or less
Experimental: (§4) After stirring 10 mL of deactivated FBS and 2 mL of a 50% (w/v %) Poly(ethylene glycol) 10,000 solution (#81280 available from Sigma-Aldrich Co., LLC) at 4° C. for 2 hours, extracellular vesicles were precipitated under the centrifugation conditions of 1,500×g at 4° C. for 30 minutes, and the supernatant was recovered to prepare Exosome-free FBS. Next, 293 cells (CRL-1573TM available from ATCC) or 293T cells (CRL-3216TM available from ATCC) were suspended in Advanced DMEM (#12491015 available from Thermo Fisher Scientific K.K.) containing 2% (v/v %) Exosome-free FBS with 2×10^4 cells/200 μL, seeded on an adhesive surface 96-well plate (#3595 manufactured by Corning Inc.), and pre-culture for 24 hours was carried out. […] The activity of lactate dehydrogenase (LDH) contained in the culture supernatant was measured using
(§5) Cytotoxicity LDH Assay Kit-WST (#CK12 manufactured by Dojindo Laboratories). […] The reaction was stopped by adding 25 μL of Stop Solution, and the cytotoxicity was evaluated by measuring the absorbance at 490 nm. The activities of LDH of the dead cell group (sample to which 20 μL of Lysis Buffer was added to compound-untreated cells 15 minutes before recovery of the culture solution) and the culture solution (culture solution in which no cell culture was carried out) were also measured in the same manner, and cytotoxicity of each compound was evaluated.

[2] = tested on: U-87 MG cells; conditions: concentration of at least about 2 μM or less
Experimental: After stirring 10 mL of deactivated FBS and 2 mL of a 50% (w/v %) Poly(ethylene glycol) 10,000 solution (#81280 available from Sigma-Aldrich Co., LLC) at 4° C. for 2 hours, extracellular vesicles were precipitated under the centrifugation conditions of 1,500×g at 4° C. for 30 minutes, and the supernatant was recovered to prepare Exosome-free FBS.

[3] = tested on: 293 cells; assay: Test Example 12: cytotoxicity, LDH activity in culture supernatant; type: cell-based; conditions: concentration of at least about 0.3 μM or less
Experimental: as §4, §5

[4] = tested on: U-87 MG cells; assay: Test Example 1: promotion of secretion of extracellular vesicles, Tim4-CD9 / Tim4-CD63 ELISA of culture supernatant; type: cell-based; conditions: 24 hours
Experimental: For the detection of extracellular vesicles contained in the culture supernatant, the Tim4-CD63 ELISA method or Tim4-CD9 ELISA method mentioned later was used.
To a 384-well plate (#464718 manufactured by Thermo Fisher Scientific K.K.) was added 1 μg/mL Tim4 protein prepared in Carbonate Buffer (a solution containing 71.4 mM NaHCO3 and 28.6 mM Na2CO3), and it was made a solid phase. The 384-well plate was washed with a 0.05% (v/v %) Tween 20-containing TBS (Tris-Buffer Saline) solution (hereinafter sometimes referred to as “TBST solution”), and then, 50 μL/well of a TBST solution containing 1% (w/v %) BSA was added thereto to carry out a blocking treatment for 1 hour. Next, 30 μL of the culture supernatant recovered above was added to the well, and further 10 μL of an 8 mM CaCl2) solution was added thereto to bind extracellular vesicles to the Tim4 protein. At this time, as a comparative object, a compound-untreated culture supernatant (solvent alone, control) was added to the Tim4 protein solid-phased plate in the same manner. Subsequently, 30 μL/well of 1 μg/mL Anti-human CD63 Antibody (#353014 available from BioLegend Inc.) diluted with a TBST solution containing 2 mM CaCl2) was added thereto and the mixture was reacted for 1 hour. To the mixture was added 50 μL/well of a TBST solution containing 2 mM CaCl2), and then, the TBST solution was removed. After repeating this operation three times, 30 μL/well of 80 ng/mL HRP-conjugated Anti-mouse IgG (#405306 available from BioLegend Inc.) diluted with a TBST solution containing 2 mM CaCl2) was added thereto and the mixture was reacted for 1 hour. Finally, 30 μL/well of a TMB solution (#05298-80 available from Nacalai Tesque Inc.) was added to the mixture and the mixture was reacted for 30 minutes, and then, 30 μL/well of a 1M H2504 solution was added thereto to stop the reaction and by measuring an absorbance at 450 nm to detect the amount of the extracellular vesicles. A relative value when the compound-untreated group (control) was made 1 was calculated. […]

[5] = tested on: 293T cells; assay: Test Examples 10 and 11: promotion of secretion of extracellular vesicles, Tim4-CD63 / Tim4-CD81 ELISA and nanoparticle tracking analysis; type: cell-based; conditions: final concentration 0 to 1 μM, 24 hours
Experimental: (§1) After stirring 10 mL of deactivated FBS and 2 mL of a 50% (w/v %) Poly(ethylene glycol) 10,000 solution (#81280 available from Sigma-Aldrich Co., LLC) at 4° C. for 2 hours, extracellular vesicles were precipitated under the centrifugation conditions of 1,500×g at 4° C. for 30 minutes, and the supernatant was recovered to prepare Exosome-free FBS. Next, 293 cells (CRL-1573TM available from ATCC) or 293T cells (CRL-3216TM available from ATCC) were suspended in Advanced DMEM (#12491015 available from Thermo Fisher Scientific K.K.) containing 2% (v/v %) Exosome-free FBS with 2×10^4 cells/200 μL, seeded on an adhesive surface 96-well plate (#3595 manufactured by Corning Inc.) and pre-culture was carried out for 24 hours. After 24 hours, the culture solution was removed, a mixed solution of 199.5 μL of 2% (v/v %) Exosome-free FBS-containing Advanced DMEM and 0.5 μL (final concentration: 0 to 1 μM) of the compound of Example 1, 5 or 9 prepared in DMSO was added thereto, and the cells were cultured for 24 hours. Thereafter, the culture solution was recovered in a 1.5 mL tube, the cells were precipitated under centrifugation conditions of 300×g at 4° C. for 5 minutes, and the culture supernatant was recovered. Subsequently, the recovered culture supernatant was subjected to centrifugation under the conditions of 2,000×g at 4° C. for 20 minutes to precipitate cell fragments, and the supernatant was recovered. Further, the recovered supernatant was subjected to centrifugation under the conditions of 10,000×g at 4° C. for 30 minutes, and the supernatant was recovered. For detection of the extracellular vesicles contained in the supernatant after centrifugation of 10,000×g, Tim4-human CD63 ELISA method and Tim4-human CD81ELISA method mentioned later was used.
(§2) <Tim4-Human CD63 ELISA Method>100 μL/well of 1 μg/mL Tim4 protein prepared in Carbonate Buffer (solution containing 71.4 mM NaHCO3 and 28.6 mM Na2CO3) was added to a 96-well plate (#3801-096 manufactured by IWAKI & CO., LTD.) and made it a solid phase. After washing the 96-well plate with a TBST solution, 200 μL/well of the TBST solution containing 1% (w/v %) BSA was added thereto and a blocking treatment for 1 hour was carried out. Next, 90 μL of the supernatant recovered as mentioned above was added to the well, and 10 μL of a 20 mM CaCl2) solution was further added to bind the extracellular vesicles to the Tim4 protein. Subsequently, 100 μL/well of 1 μg/mL Anti-human CD63 Antibody (#353014 available from BioLegend Inc.) diluted with the TBST solution containing 2 mM CaCl2) was added thereto and the reaction was carried out for 1 hour. 200 μL/well of the TBST solution containing 2 mM CaCl2) was added thereto, and thereafter, the TBST solution was removed. […]

[6] = tested on: 293 cells; assay: as above; type: cell-based; conditions: final concentration 0 to 1 μM, 24 hours
Experimental: as §1, §2

[7] = tested on: 293T cells; assay: Test Example 13: cell proliferation activity, Cell Count Reagent SF; type: cell-based
Experimental: (§3) After 30 minutes, absorbance at 450 nm was measured to evaluate cell proliferation activity.

[8] = tested on: 293 cells; assay: as above; type: cell-based
Experimental: as §3

[9] = concentration of at least about 0.3 μM or less
[10] = concentration of at least about 0.03 μM (30 nM) or less

Row | SMILES | cytotoxicity (LDH amount in the culture supernatant) [1] | cytotoxicity to U-87 MG cells (LDH amount in the culture supernatant) [2] | cytotoxicity (LDH amount in the culture supernatant) [3] | secretion of CD9 and/or CD63-positive extracellular vesicles ([4]; 10 μM) | amount of secretion of CD63 and/or CD81-positive extracellular vesicles [5] | amount of secretion of CD63 and/or CD81-positive extracellular vesicles [6] | effect on the proliferative activity [7, 9] | effect on the proliferative activity [8, 9] | secretion of CD9 and/or CD63-positive extracellular vesicles ([4]; 5 μM) | secretion of CD63-positive extracellular vesicles ([4]; 5 μM) | effect on the proliferative activity [7, 10] | effect on the proliferative activity [8, 10]
1 | CC(=O)O.Cc1cc2c(C(C)C)c(O)c(O)c(C=O)c2c(O)c1-c1c(C)cc2c(C(C)C)c(O)c(O)c(C=O)c2c1O (racemic) [Example 1, (±)-Gossypol Acetate] | low cytotoxicity | low | low cytotoxicity | strongly promoted secretion | promotes | promotes | do not significantly affect | do not significantly affect | – | – | – | –
2 | COC1=CC(c2cc3ccccc3[nH]2)=N/C1=C\c1[nH]c(C)cc1C.CS(=O)(=O)O [Example 5, Obatoclax Mesylate] | – | – | – | – | promotes | promotes | – | – | promotes secretion | strongly promoted secretion | do not significantly affect | do not significantly affect
